Data set [1] has as its target T1, 17-beta-hydroxysteroid dehydrogenase type 1 (Homo sapiens, UniProt P14061).
T1 sequence (P14061 whole entry): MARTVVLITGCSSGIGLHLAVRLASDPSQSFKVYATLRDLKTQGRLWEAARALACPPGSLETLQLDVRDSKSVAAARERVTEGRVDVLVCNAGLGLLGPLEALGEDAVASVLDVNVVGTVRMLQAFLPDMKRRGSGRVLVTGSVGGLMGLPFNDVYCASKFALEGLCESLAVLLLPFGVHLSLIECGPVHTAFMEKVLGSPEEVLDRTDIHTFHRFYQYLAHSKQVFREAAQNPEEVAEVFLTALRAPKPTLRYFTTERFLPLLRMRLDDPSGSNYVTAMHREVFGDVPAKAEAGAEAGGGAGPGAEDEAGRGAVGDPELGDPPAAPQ
Kind of data set: Inhibition of human placental cytosolic 17beta-HSD1.

Data set [2] addresses T2, 17-beta-hydroxysteroid dehydrogenase type 2 (Homo sapiens, UniProt P37059).
T2 sequence (P37059 whole entry): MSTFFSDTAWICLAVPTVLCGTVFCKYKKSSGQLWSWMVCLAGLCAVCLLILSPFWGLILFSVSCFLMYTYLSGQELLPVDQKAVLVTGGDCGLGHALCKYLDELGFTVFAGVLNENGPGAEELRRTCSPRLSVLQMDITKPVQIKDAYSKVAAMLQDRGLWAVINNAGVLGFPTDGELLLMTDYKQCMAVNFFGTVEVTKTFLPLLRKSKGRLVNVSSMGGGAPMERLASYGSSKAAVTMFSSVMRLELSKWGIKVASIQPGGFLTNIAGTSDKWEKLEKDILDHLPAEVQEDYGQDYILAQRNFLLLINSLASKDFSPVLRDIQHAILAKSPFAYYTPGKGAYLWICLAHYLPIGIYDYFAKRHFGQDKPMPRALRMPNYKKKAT
Kind of data set: Inhibition of human placental microsomal 17beta-HSD2.

Data set [3] concerns the target T3, Estrogen receptor (Homo sapiens) (UniProt P03372).
T3 sequence (whole entry): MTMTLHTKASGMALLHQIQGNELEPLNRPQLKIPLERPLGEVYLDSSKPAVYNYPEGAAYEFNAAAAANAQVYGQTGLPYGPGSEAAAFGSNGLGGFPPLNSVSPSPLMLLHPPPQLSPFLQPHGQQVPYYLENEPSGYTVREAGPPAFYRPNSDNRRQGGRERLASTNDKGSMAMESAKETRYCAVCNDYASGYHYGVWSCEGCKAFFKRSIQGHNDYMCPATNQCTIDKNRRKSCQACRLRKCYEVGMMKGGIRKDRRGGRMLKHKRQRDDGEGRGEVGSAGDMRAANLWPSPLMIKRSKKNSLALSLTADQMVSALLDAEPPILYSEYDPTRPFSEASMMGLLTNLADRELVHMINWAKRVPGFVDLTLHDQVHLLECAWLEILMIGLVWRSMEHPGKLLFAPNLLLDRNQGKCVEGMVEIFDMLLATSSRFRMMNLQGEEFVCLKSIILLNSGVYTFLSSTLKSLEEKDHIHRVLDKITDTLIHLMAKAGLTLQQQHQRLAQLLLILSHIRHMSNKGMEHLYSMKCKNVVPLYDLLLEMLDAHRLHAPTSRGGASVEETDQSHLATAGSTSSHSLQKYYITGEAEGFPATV
In words: Displacement of [2,4,6,7-3H]17beta-estradiol from human recombinant ERalpha receptor relative to 17-beta-estradiol.

Data set [4] has as its target Estrogen receptor beta (Homo sapiens) (UniProt Q92731). In words: Displacement of [2,4,6,7-3H]17beta-estradiol from human recombinant ERbeta receptor relative to 17-beta-estradiol.
A further data set relates to T47D. In words: Estrogenic activity in human ER expressing T47D cells assessed as stimulation of cell proliferation at 100 nM by MTT assay. It counts as functional, cell-based.
The target of another data set is T4, Cytochrome P450 1A2 (Homo sapiens, UniProt P05177).
T4 sequence (P05177 whole entry): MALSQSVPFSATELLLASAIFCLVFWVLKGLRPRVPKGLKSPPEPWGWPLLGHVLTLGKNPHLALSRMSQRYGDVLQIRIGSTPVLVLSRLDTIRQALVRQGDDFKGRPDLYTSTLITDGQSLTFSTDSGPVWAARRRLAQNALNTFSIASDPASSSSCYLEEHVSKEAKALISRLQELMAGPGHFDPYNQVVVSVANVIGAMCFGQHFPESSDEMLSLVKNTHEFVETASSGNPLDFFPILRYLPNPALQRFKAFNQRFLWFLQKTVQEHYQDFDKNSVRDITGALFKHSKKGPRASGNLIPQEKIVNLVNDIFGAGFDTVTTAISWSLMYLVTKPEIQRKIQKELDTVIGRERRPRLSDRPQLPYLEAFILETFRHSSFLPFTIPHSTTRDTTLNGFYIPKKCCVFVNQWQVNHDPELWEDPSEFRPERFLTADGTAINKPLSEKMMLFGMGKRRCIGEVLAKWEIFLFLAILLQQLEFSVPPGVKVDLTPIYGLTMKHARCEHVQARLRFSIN
In words: Inhibition of human hepatic CYP1A2. It counts as ADME.

The target of the next data set is T5, Cytochrome P450 2B6 (Homo sapiens, UniProt P20813).
T5 sequence (P20813 whole entry): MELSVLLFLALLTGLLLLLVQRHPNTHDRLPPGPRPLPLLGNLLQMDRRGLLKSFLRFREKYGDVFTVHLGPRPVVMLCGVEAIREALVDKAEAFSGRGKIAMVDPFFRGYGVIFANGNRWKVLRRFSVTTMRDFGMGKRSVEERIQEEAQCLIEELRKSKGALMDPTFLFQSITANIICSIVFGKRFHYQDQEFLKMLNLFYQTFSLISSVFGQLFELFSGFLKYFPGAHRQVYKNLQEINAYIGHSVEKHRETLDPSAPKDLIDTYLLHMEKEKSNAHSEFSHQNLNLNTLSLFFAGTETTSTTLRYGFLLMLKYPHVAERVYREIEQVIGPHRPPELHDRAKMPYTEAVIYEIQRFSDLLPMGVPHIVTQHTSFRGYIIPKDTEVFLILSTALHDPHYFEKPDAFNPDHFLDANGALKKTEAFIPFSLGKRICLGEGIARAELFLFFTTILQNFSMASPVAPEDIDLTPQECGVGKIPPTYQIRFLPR
Kind of data set: Inhibition of human hepatic CYP2B6. It counts as ADME.

In a further data set the target is Cytochrome P450 2C19 (Homo sapiens, UniProt P33261). In words: Inhibition of human hepatic CYP2C19. The class given is ADME.
A further data set concerns the target Cytochrome P450 2D6 (Homo sapiens, UniProt P10635). In words: Inhibition of human hepatic CYP2D6. The class given is ADME.
The next data set deals with Cytochrome P450 2C9 (Homo sapiens, UniProt P11712). Kind of data set: Inhibition of human hepatic CYP2C9. It counts as ADME.
The target in a further data set is Cytochrome P450 3A4 (Homo sapiens, UniProt P08684). In words: Inhibition of human hepatic CYP3A4.
Data set [5] can be described thus: in vitro. The settings on record: human, Caco-2.
Description: Apparent permeability across human Caco-2 cells at 50 uM
A short description of data set [6]: in vitro. As to conditions: Sprague-Dawley, rat, liver microsomes.
Data set [7] can be described thus: in vitro. The settings on record: Sprague-Dawley, rat, liver microsomes. The source holds these as a separate data set. In general terms: Liver microsomes are a subcellular fraction often used to study metabolism.

Activity calls are given as the source filed them. No cut-off for these calls is given here.

Chain of Cytochrome P450 2C19 (P33261 whole entry): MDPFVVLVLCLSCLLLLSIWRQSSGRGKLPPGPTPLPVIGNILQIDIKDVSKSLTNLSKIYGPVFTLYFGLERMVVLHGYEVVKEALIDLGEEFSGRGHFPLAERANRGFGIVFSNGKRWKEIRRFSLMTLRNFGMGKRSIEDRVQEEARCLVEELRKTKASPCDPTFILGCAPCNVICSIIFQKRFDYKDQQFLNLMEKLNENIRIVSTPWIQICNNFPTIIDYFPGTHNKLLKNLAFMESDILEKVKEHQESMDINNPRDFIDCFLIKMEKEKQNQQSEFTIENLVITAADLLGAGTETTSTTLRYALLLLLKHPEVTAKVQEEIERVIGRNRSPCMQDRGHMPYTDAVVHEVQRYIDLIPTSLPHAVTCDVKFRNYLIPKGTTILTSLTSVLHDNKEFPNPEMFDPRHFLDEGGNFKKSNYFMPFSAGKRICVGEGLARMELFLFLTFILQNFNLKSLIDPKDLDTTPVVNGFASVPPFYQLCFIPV
Chain of Cytochrome P450 2D6 (P10635 whole entry): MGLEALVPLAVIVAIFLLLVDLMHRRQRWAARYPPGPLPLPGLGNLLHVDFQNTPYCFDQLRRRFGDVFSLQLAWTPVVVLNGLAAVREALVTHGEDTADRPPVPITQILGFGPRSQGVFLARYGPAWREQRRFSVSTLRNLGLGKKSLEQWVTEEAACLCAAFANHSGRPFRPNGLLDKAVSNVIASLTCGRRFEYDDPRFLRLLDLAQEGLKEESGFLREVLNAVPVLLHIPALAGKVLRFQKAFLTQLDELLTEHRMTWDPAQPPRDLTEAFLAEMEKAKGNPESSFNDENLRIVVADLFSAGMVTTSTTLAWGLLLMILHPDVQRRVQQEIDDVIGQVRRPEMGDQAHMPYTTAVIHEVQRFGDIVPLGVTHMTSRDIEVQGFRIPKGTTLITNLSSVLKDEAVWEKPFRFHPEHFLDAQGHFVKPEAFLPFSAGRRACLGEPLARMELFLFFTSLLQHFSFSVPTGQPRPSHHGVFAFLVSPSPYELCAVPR
Chain of Estrogen receptor beta (Homo sapiens) (Q92731 whole entry): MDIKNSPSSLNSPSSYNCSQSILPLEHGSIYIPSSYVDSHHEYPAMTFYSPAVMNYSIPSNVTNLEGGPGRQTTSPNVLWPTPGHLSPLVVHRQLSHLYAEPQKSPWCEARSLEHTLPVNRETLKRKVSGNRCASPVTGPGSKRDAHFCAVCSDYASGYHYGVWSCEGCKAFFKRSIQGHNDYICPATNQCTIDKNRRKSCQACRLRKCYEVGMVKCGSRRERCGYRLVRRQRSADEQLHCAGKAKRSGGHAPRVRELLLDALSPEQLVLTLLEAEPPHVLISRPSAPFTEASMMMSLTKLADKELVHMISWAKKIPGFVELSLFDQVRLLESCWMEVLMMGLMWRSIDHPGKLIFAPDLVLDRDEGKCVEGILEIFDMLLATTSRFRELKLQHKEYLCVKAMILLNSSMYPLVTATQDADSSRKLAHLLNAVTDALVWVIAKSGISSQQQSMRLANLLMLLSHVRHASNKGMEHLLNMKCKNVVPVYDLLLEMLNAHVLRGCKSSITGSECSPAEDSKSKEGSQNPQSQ
Chain of Cytochrome P450 3A4 (P08684 whole entry): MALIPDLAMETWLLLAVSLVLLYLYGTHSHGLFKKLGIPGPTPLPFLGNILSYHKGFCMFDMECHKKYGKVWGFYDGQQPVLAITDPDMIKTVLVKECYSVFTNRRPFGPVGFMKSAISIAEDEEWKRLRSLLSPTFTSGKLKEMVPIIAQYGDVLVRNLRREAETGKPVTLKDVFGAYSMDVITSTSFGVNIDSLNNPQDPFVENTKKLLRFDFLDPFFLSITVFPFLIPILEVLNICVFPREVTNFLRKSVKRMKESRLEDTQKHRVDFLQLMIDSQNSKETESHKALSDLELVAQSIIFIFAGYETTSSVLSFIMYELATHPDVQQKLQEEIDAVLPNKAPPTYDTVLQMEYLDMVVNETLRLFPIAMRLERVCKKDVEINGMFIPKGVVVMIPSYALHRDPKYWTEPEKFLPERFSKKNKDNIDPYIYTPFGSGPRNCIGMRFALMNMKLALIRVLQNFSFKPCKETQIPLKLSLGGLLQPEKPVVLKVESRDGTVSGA
Chain of Cytochrome P450 2C9 (P11712 whole entry): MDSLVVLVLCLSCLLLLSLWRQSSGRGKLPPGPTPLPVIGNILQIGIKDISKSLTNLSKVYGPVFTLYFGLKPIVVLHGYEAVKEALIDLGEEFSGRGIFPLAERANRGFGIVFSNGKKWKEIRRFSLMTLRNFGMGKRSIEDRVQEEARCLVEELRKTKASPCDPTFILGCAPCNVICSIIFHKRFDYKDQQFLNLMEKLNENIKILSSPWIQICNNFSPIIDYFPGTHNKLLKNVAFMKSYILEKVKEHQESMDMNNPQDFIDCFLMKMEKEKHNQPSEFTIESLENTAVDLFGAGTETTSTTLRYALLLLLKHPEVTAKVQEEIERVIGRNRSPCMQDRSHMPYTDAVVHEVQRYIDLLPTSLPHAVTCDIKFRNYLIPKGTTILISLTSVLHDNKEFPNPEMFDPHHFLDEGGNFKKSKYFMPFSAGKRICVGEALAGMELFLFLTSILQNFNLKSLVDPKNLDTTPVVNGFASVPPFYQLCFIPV

Usually IC50 stands for the concentration needed to halve the response being measured. Low readings indicate inhibition by little substance, high ones a need for much substance. As usually defined, the Papp is a coefficient for how fast a substance crosses the barrier. A high value points to fast passage. For orientation: half-life means how long it takes for the measured level to halve. A high value points to slow decline. What is called microsomal CLint is the rate of metabolic loss divided by the concentration. A lower microsomal CLint goes with slow turnover. Take `Oc1cccc(-c2ccc(-c3cccc(O)c3)cc2)c1`: the IC50 in data set [1] was 173 nM; in [2] it was 2260 nM; at Cytochrome P450 1A2, greater than 4000 nM; at Cytochrome P450 2B6 it was greater than 4000 nM; at Cytochrome P450 2C19, greater than 4000 nM; against Cytochrome P450 2D6 it was greater than 4000 nM. The IC50 at Cytochrome P450 2C9 amounted to 1900 nM; on Cytochrome P450 3A4, 2100 nM. The RBA in data set [3] was less than 0.001%; in data set [4] it was 0.01%. In the data set with T47D, the result was inactive. The same compound had a Papp at 50 µM in the data set “in vitro [5]” of 12.5 ×10⁻⁶ cm/s. Further, in “in vitro [6]”, the half-life at 1 µM is 22.7 min. Moreover, the microsomal CLint at 1 µM in the data set “in vitro [7]” stood at 203 µL/min/mg.

For the origin of these results see ChEMBL document CHEMBL1142534, “Design, synthesis, biological evaluation and pharmacokinetics of bis(hydroxyphenyl) substituted azoles, thiophenes, benzenes, and aza-benzenes as potent and selective nonsteroidal inhibitors of 17beta-hydroxysteroid dehydrogenase type 1 (17beta-HSD1)” (J Med Chem, 2008).
